Results taken from patent US4107424A, “1-N-[(S)-α-hydroxy-ω-aminoacyl] derivatives of 3',4'-dideoxykanamycin B and 3'-deoxykanamycin B antibiotics” (Zaidan Hojin Biseibutsu Kagaku Kenkyu Kai, priority 1972, dated 1978).
Values after ≈ are worked out from the molar mass of the structure shown.

What was measured:
[1] = tested on: Mycobacterium smegmatis ATCC 607; experiment: Minimal inhibitory concentration, agar dilution streak method; type: cell-based; conditions: Mycolicibacterium smegmatis, ATCC607; nutrient agar, 37° C, 48 hours; read-out: Minimal inhibitory concentration
[2] = tested on: Bacillus subtilis NRRL B-558; experiment: as above; type: cell-based; conditions: NRRLB558, nutrient agar, 37° C, 18 hours
Protocol: (§1) [α]D^22 + 38°, (c 0.85, water).
(§2) *Agar Agar dilution streak method (nutrient agar, 37° C, 18 hours)
(§3) *Agar dilution streak method (nutrient agar, 37° C, 18 hours).

[3] = tested on: Escherichia coli K-12 C 600 R 135; experiment: as above; type: cell-based; conditions: 18 h, read-out: Minimal inhibitory concentration
Protocol: as §1, §2, §3

[4] = tested on: Escherichia coli J 5 R 11-2; experiment: as above; type: cell-based; conditions: J5R112, 18 h, read-out: Minimal inhibitory concentration
Protocol: as §1, §2, §3

[5] = tested on: Klebsiella pneumoniae PCI 602; experiment: as above; type: cell-based; conditions: PCI602, nutrient agar, 37° C, 18 hours
Protocol: as §1, §2, §3

[6] = tested on: Pseudomonas aeruginosa 99; experiment: as above; type: cell-based; conditions: nutrient agar, 37° C, 18 hours, read-out: Minimal inhibitory concentration
Protocol: as §1, §2, §3

Proteus rettgeri GN 311 = experiment: as above; type: cell-based; conditions: Providencia rettgeri, GN311; nutrient agar, 37° C, 18 hours
Protocol: as §1, §2, §3

Sarcina lutea PCI 1001 = experiment: as above; type: cell-based; conditions: Micrococcus luteus, PCI1001; nutrient agar, 37° C, 18 hours; read-out: Minimal inhibitory concentration
Protocol: as §1, §2, §3

[7] = tested on: Escherichia coli K-12 R-5; experiment: as above; type: cell-based; conditions: K12R5, nutrient agar, 37° C, 18 hours
Protocol: as §1, §2, §3

Salmonella typhosa T-63 = experiment: as above; type: cell-based; conditions: Salmonella enterica, nutrient agar, 37° C, 18 hours
Protocol: as §1, §2, §3

Escherichia coli NIHJ = experiment: as above; type: cell-based; conditions: nutrient agar, 37° C, 18 hours
Protocol: as §1, §2, §3

Proteus rettgeri GN 466 = experiment: as above; type: cell-based; conditions: Providencia rettgeri, GN466; nutrient agar, 37° C, 18 hours
Protocol: as §1, §2, §3

[8] = tested on: Pseudomonas aeruginosa No.12; experiment: as above; type: cell-based; conditions: nutrient agar, 37° C, 18 hours, read-out: Minimal inhibitory concentration
Protocol: as §2, §3

Escherichia coli K-12 = experiment: as above; type: cell-based; conditions: K12, nutrient agar, 37° C, 18 hours, read-out: Minimal inhibitory concentration
Protocol: as §2, §3

[9] = tested on: Escherichia coli K-12 ML 1630; experiment: as above; type: cell-based; conditions: K12ML1630, nutrient agar, 37° C, 18 hours, read-out: Minimal inhibitory concentration
Protocol: as §2, §3

[10] = tested on: Escherichia coli K-12 LA 290 R 56; experiment: as above; type: cell-based; conditions: 18 h, read-out: Minimal inhibitory concentration
Protocol: as §2, §3

[11] = tested on: Escherichia coli K-12 LA 290 R 55; experiment: as above; type: cell-based; conditions: 18 h, read-out: Minimal inhibitory concentration
Protocol: as §2, §3

[12] = tested on: Escherichia coli K-12 ML 1629; experiment: as above; type: cell-based; conditions: K12ML1629, nutrient agar, 37° C, 18 hours, read-out: Minimal inhibitory concentration
Protocol: as §2, §3

[13] = tested on: Escherichia coli K-12 ML 1410; experiment: as above; type: cell-based; conditions: K12ML1410, nutrient agar, 37° C, 18 hours, read-out: Minimal inhibitory concentration
Protocol: as §2, §3

[14] = tested on: Escherichia coli K-12 ML 1410 R 81; experiment: as above; type: cell-based; conditions: 18 h, read-out: Minimal inhibitory concentration
Protocol: as §2, §3

[15] = tested on: Pseudomonas aeruginosa GN 315; experiment: as above; type: cell-based; conditions: GN315, nutrient agar, 37° C, 18 hours, read-out: Minimal inhibitory concentration
Protocol: as §2, §3

[16] = tested on: Escherichia coli K-12 LA 290 R 64; experiment: as above; type: cell-based; conditions: nutrient agar, 37° C, 18 hours, read-out: Minimal inhibitory concentration
Protocol: as §2, §3

[17] = tested on: Escherichia coli K-12 W 677; experiment: as above; type: cell-based; conditions: K12W677, nutrient agar, 37° C, 18 hours, read-out: Minimal inhibitory concentration
Protocol: as §2, §3

[18] = tested on: Escherichia coli K-12 JR 66/W 677; experiment: as above; type: cell-based; conditions: Escherichia coli, 18 h, read-out: Minimal inhibitory concentration
Protocol: as §2, §3

[19] = tested on: Klebsiella pneumoniae type 22 #3038; experiment: as above; type: cell-based; conditions: Klebsiella pneumoniae; nutrient agar, 37° C, 18 hours
Protocol: as §2, §3

[20] = tested on: Staphylococcus aureus FDA 209P; experiment: as above; type: cell-based; conditions: FDA209P, nutrient agar, 37° C, 18 hours, read-out: Minimal inhibitory concentration
Protocol: as §2, §3

[21] = tested on: Pseudomonas aeruginosa TI-13; experiment: as above; type: cell-based; conditions: TI13, nutrient agar, 37° C, 18 hours, read-out: Minimal inhibitory concentration
Protocol: as §2, §3

[22] = tested on: Pseudomonas aeruginosa A 3; experiment: as above; type: cell-based; conditions: A3, nutrient agar, 37° C, 18 hours, read-out: Minimal inhibitory concentration
Protocol: as §2, §3

phosphotransferase = conditions: phosphorylation of hydroxyl group; cited from earlier work

## NC[C@@H]1CC[C@@H](N)[C@@H](O[C@H]2[C@H](O[C@@H]3O[C@H](CO)[C@@H](O)[C@H]3O)[C@@H](O)[C@H](N)C[C@@H]2N)O1 [3',4'-dideoxyribostamycin]
[1]
  MIC: 3.12 µg/mL (≈ 7.38 µM)
[2]
  MIC: 1.56 µg/mL (≈ 3.69 µM)
[3]
  MIC: 3.12 µg/mL (≈ 7.38 µM)
[4]
  MIC: 100 µg/mL (≈ 237 µM)
[5]
  MIC: 3.12 µg/mL (≈ 7.38 µM)
[6]
  MIC: 50 µg/mL (≈ 118 µM)
Proteus rettgeri GN 311
  MIC: 6.25 µg/mL (≈ 14.8 µM)
Sarcina lutea PCI 1001
  MIC: > 100 µg/mL
[7]
  MIC: 100 µg/mL (≈ 237 µM)
Salmonella typhosa T-63
  MIC: 1.56 µg/mL (≈ 3.69 µM)
Escherichia coli NIHJ
  MIC: 6.25 µg/mL (≈ 14.8 µM)
Proteus rettgeri GN 466
  MIC: 6.25 µg/mL (≈ 14.8 µM)
[8]
  MIC: 12.5 µg/mL (≈ 29.6 µM)
Escherichia coli K-12
  MIC: 3.12 µg/mL (≈ 7.38 µM)
[9]
  MIC: > 100 µg/mL
[10]
  MIC: 1.56 µg/mL (≈ 3.69 µM)
[11]
  MIC: 3.12 µg/mL (≈ 7.38 µM)
[12]
  MIC: > 100 µg/mL
[13]
  MIC: 6.25 µg/mL (≈ 14.8 µM)
[14]
  MIC: > 100 µg/mL
[15]
  MIC: > 100 µg/mL
[16]
  MIC: 3.12 µg/mL (≈ 7.38 µM)
[17]
  MIC: 3.12 µg/mL (≈ 7.38 µM)
[18]
  MIC: 6.25 µg/mL (≈ 14.8 µM)
[19]
  MIC: 6.25 µg/mL (≈ 14.8 µM)
[20]
  MIC: 3.12 µg/mL (≈ 7.38 µM)
[21]
  MIC: 25 µg/mL (≈ 59.2 µM)
[22]
  MIC: 6.25 µg/mL (≈ 14.8 µM)
phosphotransferase
  inactivation by phosphotransferase: inactivated by phosphorylating 5"-hydroxyl group
